Values after ≈ are worked out from the molar mass of the structure shown.
Tests used:
Assay type in all cases: functional
[1] = test system: Helicobacter pylori; test: Antimicrobial activity against Helicobacter pylori ATCC 43504 at 100 ug/disk after 4 days by disk diffusion method; conditions: ATCC 43504, 96 h, read-out: IZ
[2] = test system: Helicobacter pylori; test: Antimicrobial activity against Helicobacter pylori SS1 at 100 ug/disk after 4 days by disk diffusion method; conditions: SS1, 96 h, read-out: IZ
[3] = test system: Helicobacter pylori; test: Antimicrobial activity against Helicobacter pylori ATCC 43504 after 4 days by twofold plate dilution method; conditions: ATCC 43504, 96 h
[4] = test system: Helicobacter pylori; test: Antimicrobial activity against Helicobacter pylori SS1 after 4 days by twofold plate dilution method; conditions: SS1, 96 h
[5] = test system: Helicobacter pylori; test: Antimicrobial activity against Helicobacter pylori Sa-1 isolate after 4 days by twofold plate dilution method; conditions: 96 h
[6] = test system: Helicobacter pylori; test: Antimicrobial activity against Helicobacter pylori Sa-2 isolate after 4 days by twofold plate dilution method; conditions: 96 h
[7] = test system: Helicobacter pylori; test: Antimicrobial activity against Helicobacter pylori Sa-3 isolate after 4 days by twofold plate dilution method; conditions: 96 h
[8] = test system: Helicobacter pylori; test: Antimicrobial activity against Helicobacter pylori TPH30 after 4 days by twofold plate dilution method; conditions: 96 h
[9] = test system: Helicobacter pylori; test: Antimicrobial activity against Clarithromycin-resistant Helicobacter pylori TS281 after 4 days by twofold plate dilution method; conditions: 96 h
[10] = test system: Helicobacter pylori; test: Antimicrobial activity against Clarithromycin-resistant Helicobacter pylori TS648 after 4 days by twofold plate dilution method; conditions: 96 h
[11] = test system: Helicobacter pylori; test: Antimicrobial activity against Helicobacter pylori ATCC 43504 at 250 ng/disk after 4 days by disk diffusion method
[12] = test system: Helicobacter pylori; test: Antimicrobial activity against Helicobacter pylori SS1 at 250 ng/disk after 4 days by disk diffusion method

Compound	zone of inhibition at 100 µg/disc [1] [mm]	zone of inhibition at 100 µg/disc [2] [mm]	MIC [3] [µg/mL]	MIC [4] [µg/mL]	MIC [5] [µg/mL]	MIC [6] [µg/mL]	MIC [7] [µg/mL]	MIC [8] [µg/mL]	MIC [9] [µg/mL]	MIC [10] [µg/mL]	inhibition zone (IZ) [11] [mm]	inhibition zone (IZ) [12] [mm]
C/C(=C/CC[C@]1(C)C2C[C@@H]3[C@H](C2)C31C)CO	21.6	11.5	15.6 (≈ 70.8 µM)	31.3 (≈ 142 µM)	7.8 (≈ 35.4 µM)	31.3 (≈ 142 µM)	7.8 (≈ 35.4 µM)	15.6 (≈ 70.8 µM)	15.6 (≈ 70.8 µM)	7.8 (≈ 35.4 µM)	–	–
C/C(=C/CC[C@@]1(C)C2CC[C@@](C)(C2)[C@@H]1O)CO	27.6	15.5	–	–	–	–	–	–	–	–	–	–
C/C(=C/CC[C@]1(C)[C@H]2CC[C@]1(C)[C@@H](O)C2)CO	28.9	22.8	–	–	–	–	–	–	–	–	–	–
CC1(CCC=C(CO)CO)C2CC3C(C2)C31C (stereo not drawn)	38.7	25.9	–	–	–	–	–	–	–	–	–	–
CC[C@H]1OC(=O)[C@H](C)[C@@H](O[C@H]2C[C@@](C)(OC)[C@@H](O)[C@H](C)O2)[C@H](C)[C@@H](O[C@@H]2O[C@H](C)C[C@H](N(C)C)[C@H]2O)[C@](C)(OC)C[C@@H](C)C(=O)[C@H](C)[C@@H](O)[C@]1(C)O [CLARITHROMYCIN]	–	–	≤ 0.06	≤ 0.06	≤ 0.06	≤ 0.06	≤ 0.06	≤ 0.06	32 (≈ 42.8 µM)	2 (≈ 2.67 µM)	–	–
CC1(C)S[C@@H]2[C@H](NC(=O)[C@H](N)c3ccc(O)cc3)C(=O)N2[C@H]1C(=O)O [AMOXICILLIN]	–	–	0.06 (≈ 0.164 µM)	0.25 (≈ 0.684 µM)	0.06 (≈ 0.164 µM)	0.06 (≈ 0.164 µM)	0.25 (≈ 0.684 µM)	0.25 (≈ 0.684 µM)	0.5 (≈ 1.37 µM)	0.13 (≈ 0.356 µM)	35.3	20.3
C/C(=C/CC[C@@]1(C)[C@H]2CC[C@]1(C)[C@H](O)C2)CO	27.1	11.1	–	–	–	–	–	–	–	–	–	–
C=C(CC/C=C(/C)CO)[C@H]1CC[C@@](C)(O)CC1	8.9	–	–	–	–	–	–	–	–	–	–	–
C=C(CC/C=C(\C)CO)[C@@H]1CC=C(C)CC1	11.9	10.6	62.5 (≈ 284 µM)	125 (≈ 567 µM)	31.3 (≈ 142 µM)	62.5 (≈ 284 µM)	31.3 (≈ 142 µM)	62.5 (≈ 284 µM)	62.5 (≈ 284 µM)	31.3 (≈ 142 µM)	–	–
C/C(=C/CCC(C)(O)c1ccc(C)cc1)CO (stereo not drawn)	24.9	11.2	–	–	–	–	–	–	–	–	–	–
C/C(=C/CC[C@@]1(C)[C@@H]2CC[C@@H](C2)[C@@]1(C)O)CO	20.1	16.8	–	–	–	–	–	–	–	–	–	–
C=C1[C@H]2CC[C@H](C2)[C@@]1(C)CC/C=C(/C)CO	27.2	13.5	7.8 (≈ 35.4 µM)	31.3 (≈ 142 µM)	7.8 (≈ 35.4 µM)	7.8 (≈ 35.4 µM)	7.8 (≈ 35.4 µM)	7.8 (≈ 35.4 µM)	7.8 (≈ 35.4 µM)	7.8 (≈ 35.4 µM)	–	–
C=C1[C@H]2CC[C@H](C2)[C@]1(C)CCC=C(CO)CO	21.1	10.4	–	–	–	–	–	–	–	–	–	–

— ChEMBL document CHEMBL1158780, “Anti-Helicobacter pylori compounds from Santalum album” (2005)
